The record followed here is patent US10077284B2, “UBA5 inhibitors” (THE GOVERNING COUNCIL OF THE UNIVERSITY OF TORONTO, priority 2014, dated 2018).

The target in the experiment is T1, GST-UBA5 (Homo sapiens, UniProt Q9GZZ9).
T1 construct: made in house
Kind of experiment: UBA5 transthiolation assay (UFC1-UFM1 conjugate formation). The format is biochemical. The settings on record: for IC50: read-out: IC50; for inhibition at 0.1 µM: [Ligand] 0.1 μM; for inhibition at 0.1 µM / inhibition at 1 µM / inhibition at 5 µM / inhibition at 10 µM / inhibition at 50 µM / inhibition at 100 µM: n = 1; for inhibition at 1 µM: [Ligand] 1 μM; for inhibition at 5 µM: [Ligand] 5 μM; for inhibition at 10 µM: [Ligand] 10 μM; for inhibition at 50 µM: [Ligand] 50 μM; for inhibition at 100 µM: [Ligand] 100 μM.

Setting [1] is: Table 3, n = 3, tested 0.1-100 μM.
[2] abbreviates: Table 1, transthiolation enzymatic assay.

Where two headings read alike, the source gives them in different places.

T1 sequence (Q9GZZ9 whole entry): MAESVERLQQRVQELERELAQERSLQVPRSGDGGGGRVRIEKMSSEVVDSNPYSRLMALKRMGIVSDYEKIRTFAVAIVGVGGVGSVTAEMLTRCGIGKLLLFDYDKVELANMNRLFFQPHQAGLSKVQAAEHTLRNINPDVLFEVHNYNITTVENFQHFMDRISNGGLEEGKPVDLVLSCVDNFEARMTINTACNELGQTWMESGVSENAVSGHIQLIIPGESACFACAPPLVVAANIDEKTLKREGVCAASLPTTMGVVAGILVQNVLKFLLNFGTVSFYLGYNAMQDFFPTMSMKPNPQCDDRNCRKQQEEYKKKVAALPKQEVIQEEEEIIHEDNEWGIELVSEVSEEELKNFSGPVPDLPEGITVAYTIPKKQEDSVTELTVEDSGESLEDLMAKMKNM
Procedure: Initial rates were recorded over 30 second time intervals from 0 to 2.5 min (normal kinetics) or 0 to 5 min (inhibition kinetics). Reactions were initiated by the addition of ATP and stopped using 4× Laemmli sample buffer (BioRad). The generated protein conjugates were separated on a 10% non-degenerating SDS-polyacrylamide gel (4-15% gels were used for the UAE transthiolaton assay), followed by Western blot analysis, with the exception of GST-UBA5 where protein bands were detected using Coomassie™ Brilliant Blue R-250 staining or Stain-Free gel imaging for the enzymatic assays (Bio-Rad). Transfers for the UAE and NAE immunoblots were performed using nitrocellulose membranes and blocking and blotting was performed as described above with cellular protein extracts. The His6-tagged Ub-UBCH6 complex was detected using an anti-His mouse monoclonal primary antibody (1:500, abcam). A rabbit anti-NEDD8 polyclonal primary antibody (1:500, BostonBiochem) was used for the detection of the E2-NEDD8 complexes. […] Inhibitory data was fit to a dose-response curve (Y=Bottom+(Top−Bottom)/(1+10^(X-Log IC50))) using GraphPad Prism 6.

As to `Nc1ncnc2c1ncn2[C@@H]1O[C@H](C(=O)NCCN2CCCNCCNCCCNCC2)[C@@H](O)[C@H]1O.[Zn+2]` [Compound 1.1.A.Cy.Zn, (2S,3S,4R,5R)—N-(2-(1,4,8,11-tetraazacyclotetradecan-1-yl)ethyl)-5-(6-amino-9H-purin-9-yl)-3,4-dihydroxytetrahydrofuran-2-carboxamide, zinc(II) trifluoromethanesulfonate], the half-inhibitory concentration (IC50) (Table 5, n = 3) was found to be 20 µM. For the compound `Nc1ncnc2c1ncn2[C@@H]1O[C@H](C(=O)NCC(=O)N2CCNCCNCCNCC2)[C@@H](O)[C@H]1O` [Compound 1.1, (2S,3S,4R,5R)-5-(6-amino-9H-purin-9-yl)-3,4-dihydroxy-N-(2-oxo-2-(1,4,7,10-tetraazacyclododecan-1-yl)ethyl)tetrahydrofuran-2-carboxamide], at 0.1 µM the inhibition was 0%, the inhibition at 1 µM came out at 25%, the inhibition at 5 µM was determined as 41% and the inhibition at 10 µM turned out to be 31%. In addition, at 50 µM the inhibition was 4% and at 100 µM the inhibition was 26%. Regarding `Nc1ncnc2c1ncn2[C@@H]1O[C@H](C(=O)NCCCCCCN2CCNCCNCCNCC2)[C@@H](O)[C@H]1O.[Zn+2]` [Compound 1.5.A.Zn, (2S,3S,4R,5R)—N-(6-(1,4,7,10-tetraazacyclododecan-1-yl)hexyl)-5-(6-amino-9H-purin-9-yl)-3,4-dihydroxytetrahydrofuran-2-carboxamide, zinc(II) trifluromethanesulfonate], where the note is “Table 5, n = 3”, the half-inhibitory concentration (IC50) is 38.2 µM.

For `Nc1ncnc2c1ncn2[C@@H]1O[C@H](C(=O)NCCN2CCNCCNCCNCC2)[C@@H](O)[C@H]1O.[Zn+2]` [Compound 1.1.A.Zn, (2S,3S,4R,5R)—N-(2-(1,4,7,10-tetraazacyclododecan-1-yl)ethyl)-5-(6-amino-9H-purin-9-yl)-3,4-dihydroxytetrahydrofuran-2-carboxamide, zinc(II) trifluoromethanesulfonate], the IC50 (Table 5, n = 3) was found to be 7.61 µM. With `C1CNCCNCCNCCN1.[Zn+2]` [zinc(II) cyclen complex, reference compound], the “effect on the transthiolation reaction” value (at 100 μM) is reported as “able to impede the transthiolation reaction”.

For the compound “(2S,3S,4R,5R)-5-(6-amino-9H-purin-9-yl)-3,4-dihydroxy-N-(2-oxo-2-(1,4,8,11-tetraazacyclotetradecan-1-yl)ethyl)tetrahydrofuran-2-carboxamide, copper(II) trifluoromethanesulfonate [Compound 1.1.Cy.Cu]”, the half-maximal inhibitory concentration (IC50) (Table 4, n = 3) was found to be 45.4 µM. `Nc1ncnc2c1ncn2[C@@H]1O[C@H](C(=O)NCC(=O)N2CCCNCCNCCCNCC2)[C@@H](O)[C@H]1O.[Zn+2]` [Compound 1.1.Cy.Zn, (2S,3S,4R,5R)-5-(6-amino-9H-purin-9-yl)-3,4-dihydroxy-N-(2-oxo-2-(1,4,8,11-tetraazacyclotetradecan-1-yl)ethyl)tetrahydrofuran-2-carboxamide, zinc(II) trifluromethanesulfonate]: under “Table 4, n = 3”, the IC50 is 4.24 µM. Take “(2S,3S,4R,5R)-5-(6-amino-9H-purin-9-yl)-3,4-dihydroxy-N-(5-oxo-5-(1,4,7,10-tetraazacyclododecan-1-yl)pentyl)tetrahydrofuran-2-carboxamide, copper(II) trifluoromethanesulfonate [Compound 1.4.Cu]”: the IC50 under setting [1] is 38.8 µM. Still for that read-out and setting: then `Nc1ncnc2c1ncn2[C@@H]1O[C@H](C(=O)NCCCCCC(=O)N2CCNCCNCCNCC2)[C@@H](O)[C@H]1O.O=S(=O)([O-])C(F)(F)F.O=S(=O)([O-])C(F)(F)F.[Cu+2]` [Compound 1.5.Cu, (2S,3S,4R,5R)—N-(6-(1,4,7,10-tetraazacyclododecan-1-yl)-6-oxohexyl)-5-(6-amino-9H-purin-9-yl)-3,4-dihydroxytetrahydrofuran-2-carboxamide copper (II) trifluoromethanesulfonate], with over 100 µM. `Nc1ncnc2c1ncn2[C@@H]1O[C@H](C(=O)NCCCC(=O)N2CCNCCNCCNCC2)[C@@H](O)[C@H]1O.[Zn+2]` [Compound 1.3.Zn, (2S,3S,4R,5R)-5-(6-amino-9H-purin-9-yl)-3,4-dihydroxy-N-(4-oxo-4-(1,4,7,10-tetraazacyclododecan-1-yl)butyl)tetrahydrofuran-2-carboxamide zinc (II) trifluoromethanesulfonate]: the half-maximal inhibitory concentration (IC50) under setting [2] amounted to 23.3 µM.

For `O=C(NCCCCCC(=O)N1CCNCCNCCNCC1)[C@H]1O[C@@H](n2cnc3c(N[C@H]4CCc5ccccc54)ncnc32)[C@H](O)[C@@H]1O.[Zn+2]` [Compound 1.5.An6.Zn, (2S,3S,4R,5R)-5-(6-(((S)-2,3-dihydro-1H-inden-1-yl)amino)-9H-purin-9-yl)-3,4-dihydroxy-N-(6-oxo-6-(1,4,7,10-tetraazacyclododecan-1-yl)hexyl)tetrahydrofuran-2-carboxamide, zinc(II) trifluoromethanesulfate], for the setting “Table 6, n = 3”, the half-maximal inhibitory concentration (IC50) was found to be 13.6 µM.

For the compound “(2S,3S,4R,5R)-5-(6-amino-9H-purin-9-yl)-3,4-dihydroxy-N-(2-oxo-2-(1,4,7,10-tetraazacyclododecan-1-yl)ethyl)tetrahydrofuran-2-carboxamide zinc (II) trifluromethanesulfonate [Compound 1.1.Zn]”, the IC50 was found to be 10.5 µM under setting [2] and 10.5 µM (Table 5, n = 3). For the compound `Nc1ncnc2c1ncn2[C@@H]1O[C@H](C(=O)NCCC(=O)N2CCNCCNCCNCC2)[C@@H](O)[C@H]1O.[Zn+2]` [Compound 1.2.Zn, (2S,3S,4R,5R)-5-(6-amino-9H-purin-9-yl)-3,4-dihydroxy-N-(3-oxo-3-(1,4,7,10-tetraazacyclododecan-1-yl)propyl)tetrahydrofuran-2-carboxamide zinc (II) trifluoromethanesulfonate], the concentration for half-maximal inhibition (IC50) under setting [2] came to 8.9 µM. `Nc1ncnc2c1ncn2[C@@H]1O[C@H](C(=O)NCCCC(=O)N2CCNCCNCCNCC2)[C@@H](O)[C@H]1O` [Compound 1.3, (2S,3S,4R,5R)-5-(6-amino-9H-purin-9-yl)-3,4-dihydroxy-N-(4-oxo-4-(1,4,7,10-tetraazacyclododecan-1-yl)butyl)tetrahydrofuran-2-carboxamide] gave an inhibition at 0.1 µM of 24%, an inhibition at 1 µM of 10%, an inhibition at 5 µM of 17% and an inhibition at 10 µM of 28%. This compound also registered an inhibition at 50 µM of 11% and an inhibition at 100 µM of 0%.

As for “(2S,3S,4R,5R)-5-(6-amino-9H-purin-9-yl)-3,4-dihydroxy-N-(4-oxo-4-(1,4,7,10-tetraazacyclododecan-1-yl)butyl)tetrahydrofuran-2-carboxamide, copper(II) trifluromethanesulfonate [Compound 1.3.Cu]”, the half-inhibitory concentration (IC50) under setting [1] was over 100 µM. Consider “(2S,3S,4R,5R)-5-(6-amino-9H-purin-9-yl)-3,4-dihydroxy-N-(3-oxo-3-(1,4,7,10-tetraazacyclododecan-1-yl)propyl)tetrahydrofuran-2-carboxamide, copper(II) trifluromethanesulfonate [Compound 1.2.Cu]”, for which the IC50 under setting [1] is 39.6 µM. In the case of “(2S,3S,4R,5R)—N-(6-(1,4,7,10-tetraazacyclododecan-1-yl)hexyl)-5-(6-amino-9H-purin-9-yl)-3,4-dihydroxytetrahydrofuran-2-carboxamide, copper(II) trifluromethanesulfonate [Compound 1.5.A.Cu]”, for the setting “Table 5, n = 3”, the half-maximal inhibitory concentration (IC50) was over 100 µM. For the compound “(2S,3S,4R,5R)—N-(2-(1,4,7,10-tetraazacyclododecan-1-yl)ethyl)-5-(6-amino-9H-purin-9-yl)-3,4-dihydroxytetrahydrofuran-2-carboxamide, copper(II) trifluromethanesulfonate [Compound 1.1.A.Cu]”, the 50% inhibitory concentration (IC50) (Table 5, n = 3) is 21.1 µM.

In the case of `Nc1ncnc2c1ncn2[C@@H]1O[C@H](C(=O)NCCCCC(=O)N2CCNCCNCCNCC2)[C@@H](O)[C@H]1O.[Zn+2]` [Compound 1.4.Zn, (2S,3S,4R,5R)-5-(6-amino-9H-purin-9-yl)-3,4-dihydroxy-N-(5-oxo-5-(1,4,7,10-tetraazacyclododecan-1-yl)pentyl)tetrahydrofuran-2-carboxamide zinc (II) trifluoromethanesulfonate], the half-maximal inhibitory concentration (IC50) under setting [2] came out at 5.2 µM. Consider “(2S,3S,4R,5R)-5-(6-(((S)-2,3-dihydro-1H-inden-1-yl)amino)-9H-purin-9-yl)-3,4-dihydroxy-N-(6-oxo-6-(1,4,7,10-tetraazacyclododecan-1-yl)hexyl)tetrahydrofuran-2-carboxamide, copper(II) trifluoromethanesulfonate [Compound 1.5.An6.Cu]”, for which the IC50 (Table 6, n = 3) was found to be 12.5 µM.

Regarding “(2S,3S,4R,5R)-5-(6-amino-9H-purin-9-yl)-3,4-dihydroxy-N-(2-oxo-2-(1,4,7,10-tetraazacyclododecan-1-yl)ethyl)tetrahydrofuran-2-carboxamide, copper(II) trifluromethanesulfonate [Compound 1.1.Cu]”, the IC50 under setting [1] was over 100 µM.
